Results reported in publication PMC6009948, “Design and synthesis of benzopyran-based inhibitors of the hypoxia-inducible factor-1 pathway with improved water solubility” (Journal of Enzyme Inhibition and Medicinal Chemistry, 2017).
Values after ≈ are worked out from the molar mass of the structure shown. Like-named read-outs stand apart in the source and are kept apart here. Blank lines part the entries; values can stand above or below the compound they belong to.

What was measured:
[1] = test system: hypoxia-induced HIF transcriptional activity; experiment: HRE-luciferase reporter assay in LN229-HRE-luciferase glioma cells; format: cell-based; conditions: read-out: IC50, HRE-luciferase reporter inhibitory activity
Protocol: These analogs were first evaluated for their ability to inhibit hypoxia-induced HIF transcriptional activity in LN229-HRE-luciferase glioma cells as described previously. Their inhibitory activities are presented as IC50 in Table 1.
All the analogs were assessed for their ability to inhibit the HIF-1 pathway using a luciferase reporter assay described previously. This assay reports the ability for a compound to inhibit HIF transcriptional activity. […] The same is true if the morpholino unit is directly attached to the sulfonyl group (6). In the two series of compounds (3, 4) with a substituted phenyl group replacing the benzopyran ring in 1, only introduction of the morpholino moiety at the para positions (3) allowed for the preservation of HIF inhibition activity.

[2] = Solubility by dynamic light scattering (particle aggregation); format: physicochemical; conditions: DLS; for Concentration of particle appearance in PBS: PBS with 1% DMSO, rested 1 h; for Concentration of particle appearance in water: de-ionised water with 1% DMSO, room temperature, rested 24 h
Protocol: To further investigate the true enhancement of solubility, particle aggregation was examined using dynamic light scattering (DLS). Selected compounds were treated according to the following procedure: • All centrifuge tubes and cuvettes were rinsed with either DCM or water and then vacuum dried before use to remove dust and any particulates. • Stock solutions (10 mM) of each compound of interest were prepared in filtered DMSO. • Six dilutions (0, 10, 20, 30, 50, and 100 µM) were prepared in filtered de-ionised water with 1% DMSO and allowed to rest at room temperature for 24 h after vortex. • DLS analysis was performed for each concentration on the Brookhaven Instrument Corporation, NanoBrook 90Plus Particle Size Analyzer, Version 5.20 (Holtsville, NY). • Additional experiments were performed at specific concentrations for each compound as follows: 0, 1, 3, 10, and 20 µM concentrations of 1; 0, 10, 12, and 20 µM of 2; 0, 5, 7, and 10 µM of 3a; and 0, 10, 20, 30, and 50 µM concentrations of 4a. • Additional experiments were repeated in filtered PBS* with 1% DMSO as follows: 0, 0.5, 1, 2, 3, and 5 µM concentrations of 1; 0, 5, 7, 10, 12, and 15 µM of 2; 0, 10, 12, 15, and 20 µM of 3a; and 0, 10, 20, 30, and 50 µM concentrations of 4a.
*Experiments in PBS were carried out the same way as the experiments in water except DMSO stock solutions were made at 5 mM and the PBS diluted samples rested for 1 h before particle analysis.
To investigate the true enhancement of aqueous solubility, particle aggregation was examined using DLS. DLS can detect particle sizes in solution by measuring changes in scattered light in relation to the Brownian motion of particles. It is commonly used to detect the particle sizes of various chemical and biological molecules, including small molecule inhibitors. Though there are several methods for detecting solubility, we chose the DLS method due to its ease, reproducibility, minimal sample requirement, and relative sensitivity to small particles.
The active compounds 3a and 4a were compared to their non-morpholine containing counterparts, 1 and 2, respectively (Figure 3). Solutions of varying concentrations of each compound were made in either water or PBS with 1% DMSO. […] DLS measurements, summarised in Table 2, reveal that 3a forms aggregates at approximately 10 µM, an order of magnitude higher than 1, which is insoluble at just 1 µM in water.

[3] = test system: hypoxia-induced HIF transcriptional activity; conditions: cited from earlier work
[4] = parameters: method as in earlier work; conditions: cited from earlier work
[5] = test system: brain, and pancreatic cancers; parameters: method as in earlier work; conditions: cited from earlier work
[6] = parameters: method as in earlier work; conditions: daily treatments with 60 mg/kg for up to 12 weeks; cited from earlier work
[7] = parameters: method as in earlier work; conditions: cited from earlier work; remark: listed apart in the source

Compound: COc1ccc(S(=O)(=O)N(Cc2cccc(CN3CCOCC3)c2)c2ccccc2)cc1OC [Compound 3b, 3,4-Dimethoxy-N-(3-(morpholinomethyl)benzyl)-N-phenylbenzenesulfonamide]
IC50 ([1]; Glioma cell): > 5 µM

Compound: COc1ccc(S(=O)(=O)N(Cc2ccc(N3CCOCC3)cc2)c2ccccc2)cc1OC [Compound 3d, 3,4-Dimethoxy-N-(4-morpholinobenzyl)-N-phenylbenzenesulfonamide]
IC50 ([1]; Glioma cell): 3.8 µM

Compound: COc1ccc(S(=O)(=O)N(Cc2ccc3c(c2)C=CC(C)(C)O3)c2ccccc2)cc1OC [Compound 1, N-((2,2-dimethyl-2H-chromen-6-yl)methyl)-3,4-dimethoxy-N-phenylbenzenesulfonamide]
Concentration of particle appearance in PBS [2]: 1 µM
Concentration of particle appearance in water [2]: 1 µM
IC50 ([3]; lead compound 1 (KCN1), read-out: IC50, HIF-dependent bioassay (HRE-luciferase reporter)): ~600 nM
solubility in water [4]: 9 ng/mL (≈ 0.0193 µM)
in vivo inhibitory activity against brain, and pancreatic cancers [5]: very pronounced inhibitory activity
tolerability / side effects in mice [6]: minimal side effects
cytotoxicity [7]: Neither did 1 nor its analogs demonstrate cytotoxicity

Compound: 3,4-Dimethoxy-N-(2-(morpholinomethyl)benzyl)-N-phenylbenzenesulfonamide [Compound 3c]
IC50 [1]: > 5 µM

Compound: COc1ccc(S(=O)(=O)N(Cc2ccc(CN3CCOCC3)cc2)c2ccccc2)cc1OC [Compound 3a, 3,4-Dimethoxy-N-(4-(morpholinomethyl)benzyl)-N-phenylbenzenesulfonamide]
IC50 ([1]; Glioma cell): 0.9 µM
Concentration of particle appearance in PBS [2]: 15 µM

Compound: COc1ccc(S(=O)(=O)N(Cc2ccc3c(n2)C=CC(C)(C)O3)C2CCC2)cc1OC [Compound 2, N-cyclobutyl-N-((2,2-dimethyl-2H-pyrano[3,2-b]pyridin-6-yl)methyl)-3,4-dimethoxybenzenesulfonamide]
Concentration of particle appearance in PBS [2]: 10 µM
Concentration of particle appearance in water [2]: 10 µM
IC50 ([3]; lead compound 2 (64b), read-out: IC50, HRE-luciferase reporter inhibitory activity): ~300 nM

Compound: N-Cyclobutyl-3,4-dimethoxy-N-(2-(morpholinomethyl)benzyl)benzenesulfonamide [Compound 4c]
IC50 [1]: > 5 µM

Results, then the compound that gave them:

IC50 ([1]; Glioma cell): > 5 µM
Compound: COc1ccc(S(=O)(=O)N(Cc2cccc(CN3CCOCC3)c2)C2CCC2)cc1OC [Compound 4b, N-Cyclobutyl-3,4-dimethoxy-N-(3-(morpholinomethyl)benzyl)benzenesulfonamide]

IC50 ([1]; Glioma cell): ~2.6 µM
Compound: COc1ccc(S(=O)(=O)N(Cc2ccc(N3CCOCC3)cc2)C2CCC2)cc1OC [Compound 4d, N-Cyclobutyl-3,4-dimethoxy-N-(4-morpholinobenzyl)benzenesulfonamide]

IC50 ([1]; Glioma cell): > 5 µM
Compound: CC1(C)C=Cc2cc(CN(c3ccccc3)S(=O)(=O)N3CCOCC3)ccc2O1 [Compound 6a, N-((2,2-Dimethyl-2H-chromen-6-yl)methyl)-N-phenylmorpholine-4-sulfonamide]

IC50 ([1]; Glioma cell): > 5 µM
Compound: COc1ccc(S(=O)(=O)N(CCN2CCOCC2)Cc2ccc3c(c2)C=CC(C)(C)O3)cc1OC [Compound 5a, N-((2,2-Dimethyl-2H-chromen-6-yl)methyl)-3,4-dimethoxy-N-(2-morpholinoethyl)benzenesulfonamide]

IC50 ([1]; Glioma cell): > 5 µM
Compound: CC1(C)C=Cc2cc(CN(C3CCC3)S(=O)(=O)N3CCOCC3)ccc2O1 [Compound 6b, N-Cyclobutyl-N-((2,2-dimethyl-2H-chromen-6-yl)methyl)morpholine-4-sulfonamide]

IC50 ([1]; Glioma cell): > 5 µM
Compound: COc1ccc(S(=O)(=O)N(CCCN2CCOCC2)Cc2ccc3c(c2)C=CC(C)(C)O3)cc1OC [Compound 5b, N-((2,2-Dimethyl-2H-chromen-6-yl)methyl)-3,4-dimethoxy-N-(3-morpholinopropyl)benzenesulfonamide]

IC50 ([1]; Glioma cell): 1 µM
Concentration of particle appearance in water [2]: >100 µM
Compound: COc1ccc(S(=O)(=O)N(Cc2ccc(CN3CCOCC3)cc2)C2CCC2)cc1OC [Compound 4a, N-Cyclobutyl-3,4-dimethoxy-N-(4-(morpholinomethyl)benzyl)benzenesulfonamide]
